Source: publication PMC7181660, “A novel specific PERK activator reduces toxicity and extends survival in Huntington's disease models” (Scientific Reports, 2020)
Like-named read-outs stand apart in the source and are kept apart here.

How the values were obtained:
Test in all cases: biochemical
Format in all cases: biochemical
panel of 391 kinases [1] = biological target: panel of 391 kinases (Homo sapiens, UniProt O15111); details: IKKa/CHUK, MK-28 1 µM, ATP 1 µM
panel of 391 kinases [2] = biological target: panel of 391 kinases (Homo sapiens, UniProt O75676); details: MSK2/RPS6KA4, MK-28 1 µM, ATP 1 µM
panel of 391 kinases [3] = biological target: panel of 391 kinases (Homo sapiens, UniProt O95819); details: HGK/MAP4K4, MK-28 1 µM, ATP 1 µM
panel of 391 kinases [4] = biological target: panel of 391 kinases (Homo sapiens, UniProt P17612); details: PKA, MK-28 1 µM, ATP 1 µM
panel of 391 kinases [5] = biological target: panel of 391 kinases (Homo sapiens, UniProt P19784); details: CK2a2, MK-28 1 µM, ATP 1 µM
panel of 391 kinases [6] = biological target: panel of 391 kinases (Homo sapiens, UniProt P49760); details: CLK2, MK-28 1 µM, ATP 1 µM
panel of 391 kinases [7] = biological target: panel of 391 kinases (Homo sapiens, UniProt P49761); details: CLK3, MK-28 1 µM, ATP 1 µM
panel of 391 kinases [8] = biological target: panel of 391 kinases (Homo sapiens, UniProt P54753); details: EPHB3, MK-28 1 µM, ATP 1 µM
panel of 391 kinases [9] = biological target: panel of 391 kinases (Homo sapiens, UniProt P54762); details: EPHB1, MK-28 1 µM, ATP 1 µM
panel of 391 kinases [10] = biological target: panel of 391 kinases (Homo sapiens, UniProt P78362); details: SRPK2, MK-28 1 µM, ATP 1 µM
panel of 391 kinases [11] = biological target: panel of 391 kinases (Homo sapiens, UniProt Q13043); details: MST1/STK4, MK-28 1 µM, ATP 1 µM
panel of 391 kinases [12] = biological target: panel of 391 kinases (Homo sapiens, UniProt Q16816); details: PHKg1, MK-28 1 µM, ATP 1 µM
panel of 391 kinases [13] = biological target: panel of 391 kinases (Homo sapiens, UniProt Q8IY84); details: NIM1, MK-28 1 µM, ATP 1 µM
panel of 391 kinases [14] = biological target: panel of 391 kinases (Homo sapiens, UniProt Q8NEV4); details: MYO3A, MK-28 1 µM, ATP 1 µM
panel of 391 kinases [15] = biological target: panel of 391 kinases (Homo sapiens, UniProt Q99759); details: MEKK3, MK-28 1 µM, ATP 1 µM
panel of 391 kinases [16] = biological target: panel of 391 kinases (Homo sapiens, UniProt Q99986); details: VRK1, MK-28 1 µM, ATP 1 µM
panel of 391 kinases [17] = biological target: T1, panel of 391 kinases (Homo sapiens, UniProt Q9NZJ5)
T1 sequence (Q9NZJ5 30-1116): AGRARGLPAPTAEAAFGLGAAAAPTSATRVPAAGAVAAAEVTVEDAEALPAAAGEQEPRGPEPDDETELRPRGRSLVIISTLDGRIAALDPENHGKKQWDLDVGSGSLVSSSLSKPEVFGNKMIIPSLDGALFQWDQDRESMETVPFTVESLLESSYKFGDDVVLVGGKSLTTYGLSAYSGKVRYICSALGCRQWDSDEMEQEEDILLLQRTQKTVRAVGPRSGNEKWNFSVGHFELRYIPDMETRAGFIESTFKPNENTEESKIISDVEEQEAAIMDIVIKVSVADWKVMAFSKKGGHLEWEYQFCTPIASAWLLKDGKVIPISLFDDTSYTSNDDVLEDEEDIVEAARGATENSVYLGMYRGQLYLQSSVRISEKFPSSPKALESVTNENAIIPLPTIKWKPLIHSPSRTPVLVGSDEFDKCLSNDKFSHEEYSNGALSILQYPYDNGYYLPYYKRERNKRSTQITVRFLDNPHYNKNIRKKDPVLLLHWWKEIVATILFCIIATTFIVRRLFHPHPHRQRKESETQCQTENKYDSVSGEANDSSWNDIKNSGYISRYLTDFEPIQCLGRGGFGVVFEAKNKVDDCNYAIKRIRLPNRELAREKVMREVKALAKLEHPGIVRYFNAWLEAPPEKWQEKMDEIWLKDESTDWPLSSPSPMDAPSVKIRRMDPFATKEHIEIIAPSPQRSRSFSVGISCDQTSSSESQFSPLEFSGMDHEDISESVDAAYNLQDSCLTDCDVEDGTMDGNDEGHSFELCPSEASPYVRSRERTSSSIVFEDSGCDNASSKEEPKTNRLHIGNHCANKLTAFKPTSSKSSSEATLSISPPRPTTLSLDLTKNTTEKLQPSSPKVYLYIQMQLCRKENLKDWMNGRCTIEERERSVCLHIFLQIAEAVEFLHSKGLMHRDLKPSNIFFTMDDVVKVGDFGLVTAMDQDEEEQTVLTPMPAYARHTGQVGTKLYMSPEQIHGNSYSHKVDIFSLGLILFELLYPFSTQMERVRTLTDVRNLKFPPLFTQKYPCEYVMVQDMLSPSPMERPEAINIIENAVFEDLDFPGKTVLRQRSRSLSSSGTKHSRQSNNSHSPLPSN

panel of 391 kinases [18] = biological target: panel of 391 kinases (Homo sapiens, UniProt Q9UEW8); details: STK39/STLK3, MK-28 1 µM, ATP 1 µM
[19] = read-out: % Enzyme Activity (relative to DMSO controls)

For `CN(/N=C\c1ccc(O)c(O)c1)c1nc(-c2ccccc2)cc(-c2ccccc2)n1` [MK-28], the “% Enzyme Activity (relative to DMSO controls)” value (panel of 391 kinases [1]) was 106.17%, the remaining activity at 1 µM (panel of 391 kinases [1]; [19]) was 107% and the “% Enzyme Activity (relative to DMSO controls)” value (panel of 391 kinases [2]) was 94.82%. The remaining activity at 1 µM (panel of 391 kinases [2]; [19]) was 96.8%, the “% Enzyme Activity (relative to DMSO controls)” value (panel of 391 kinases [3]) was 95.38% and the remaining activity at 1 µM (panel of 391 kinases [3]; [19]) was 102%. For the same compound, the “% Enzyme Activity (relative to DMSO controls)” value (panel of 391 kinases [4]) was 91.97%, the remaining activity at 1 µM (panel of 391 kinases [4]; [19]) was 93% and the “% Enzyme Activity (relative to DMSO controls)” value (panel of 391 kinases [5]) was 73.33%. For the same compound, the remaining activity at 1 µM (panel of 391 kinases [5]; [19]) was 78%, the “% Enzyme Activity (relative to DMSO controls)” value (panel of 391 kinases [6]) was 103.52% and the remaining activity at 1 µM (panel of 391 kinases [6]; [19]) was 108%. For the same compound, the “% Enzyme Activity (relative to DMSO controls)” value (panel of 391 kinases [7]) was 105.09%, the remaining activity at 1 µM (panel of 391 kinases [7]; [19]) was 110% and the “% Enzyme Activity (relative to DMSO controls)” value (panel of 391 kinases [8]) was 97.56%. For the same compound, the remaining activity at 1 µM (panel of 391 kinases [8]; [19]) was 99.2%, the “% Enzyme Activity (relative to DMSO controls)” value (panel of 391 kinases [9]) was 96.23% and the remaining activity at 1 µM (panel of 391 kinases [9]; [19]) was 98.1%. For the same compound, the “% Enzyme Activity (relative to DMSO controls)” value (panel of 391 kinases [10]) was 102.82%, the remaining activity at 1 µM (panel of 391 kinases [10]; [19]) was 106% and the “% Enzyme Activity (relative to DMSO controls)” value (panel of 391 kinases [11]) was 85.69%. The remaining activity at 1 µM (panel of 391 kinases [11]; [19]) was 93.7%, the “% Enzyme Activity (relative to DMSO controls)” value (panel of 391 kinases [12]) was 89.19% and the remaining activity at 1 µM (panel of 391 kinases [12]; [19]) was 90.7%. The “% Enzyme Activity (relative to DMSO controls)” value (panel of 391 kinases [13]) was 98.00%, the remaining activity at 1 µM (panel of 391 kinases [13]; [19]) was 104% and the “% Enzyme Activity (relative to DMSO controls)” value (panel of 391 kinases [14]) was 104.11%. For the same compound, the remaining activity at 1 µM (panel of 391 kinases [14]; [19]) was 104%, the “% Enzyme Activity (relative to DMSO controls)” value (panel of 391 kinases [15]) was 87.80% and the remaining activity at 1 µM (panel of 391 kinases [15]; [19]) was 93.8%. For the same compound, the “% Enzyme Activity (relative to DMSO controls)” value (panel of 391 kinases [16]) was 104.86%, the remaining activity at 1 µM (panel of 391 kinases [16]; [19]) was 106% and the remaining activity at 1 µM (panel of 391 kinases [17]; 1 μM, duplicate, 391-kinase panel, read-out: PERK (EIF2AK3) activity, % of the control) was 181%. For the same compound, the “% Enzyme Activity (relative to DMSO controls)” value (panel of 391 kinases [17]; kinase EIF2AK3, compound at 1 µM, single dose in duplicates, 1 µM ATP) was 175.07%, the remaining activity at 1 µM (panel of 391 kinases [17]; kinase EIF2AK3, compound at 1 µM, single dose in duplicates, 1 µM ATP, read-out: % Enzyme Activity (relative to DMSO controls)) was 188% and the “% Enzyme Activity (relative to DMSO controls)” value (panel of 391 kinases [18]) was 106.05%. The remaining activity at 1 µM (panel of 391 kinases [18]; [19]) was 108%.
